Measurements published in BigSolDB 2.1.

COc1cccc(C=O)c1O
solubility (mole fraction)
Settings	273.15 K	278.15 K	283.15 K	288.15 K	293.15 K	298.15 K	303.15 K
in ethanol	0.0401	0.0526	0.0774	0.138	0.226	0.38	0.615
in n-propanol	0.0312	0.0388	0.0552	0.0807	0.134	0.299	0.554
in water	–	0.000268	0.000332	0.0004	0.000496	0.000578	0.000786
